# Data: patent US7893299B2, “Interleukin-1 and tumor necrosis factor-αmodulators; syntheses of such modulators and methods of using such modulators” (Nereus Pharmaceuticals, Inc., priority 2005, dated 2011)
# Where two headings read alike, the source gives them in different places.
# How the values were obtained:
# [1] = system: MM cell lines (MM.1S, MM.1R, OCI-MyS, OPM-1, Dox-40); experiment: viability of MM cell lines (MM.1S, MM.1R, OCI-MyS, OPM-1, Dox-40); assay type: cell-based; conditions: 48 h; all cell lines; read-out: IC50 range, decrease in cell viability
# Protocol: Transcription factor NF-KB is linked to growth and survival of multiple myeloma (MM) cells and blockade of NF-KB activity. NPI-1387 (Formula IIB-b1; compound 24 shown above under scheme 4), a potent small-molecule inhibitor of upstream activator of NF-KB, was administered to MM cells and its effect on the viability of MM cells, including those resistant to conventional agents dexamethasone or doxorubicin is shown.
# [2] = system: CCD-27sk (human normal skin fibroblast); experiment: 48 hr cytotoxicity, CCD-27sk; assay type: cell-based; conditions: 48 hr drug exposure
# Protocol: (§1) Human colon adenocarcinoma HT-29 (ATCC# HTB-38), prostate adenocarcinoma PC-3 (ATCC# CRL-1435), breast adenocarcinoma MDA-MB231 (ATCC# HTB-26), Multiple Myeloma RPMI 8226 (ATCC# CCL-155) and U266 (ATCC # TIB-196) cell lines and human normal fibroblast CCD-27sk (ATCC# CRL-1475) were all purchased from ATCC (Manassas, Va.). The cells were maintained in their respective ATCC recommended culture media at 37° C., 5% CO2 and 95% humidified air.
# (§2) The cytotoxicity assays were performed by seeding individual cell lines at appropriate density in the 96 well flat-bottomed plates and allowed to attach for 24 hours at 37° C., 5% CO2 and 95% humidified air (RPMI 8226 and U266 cells were plated in 96 well plates on the day of compound addition). Serially diluted NPI-1387 was added in triplicate to cells at concentrations ranging from 160 nM to 20 μM. Final concentration of 0.25% (v/v) DMSO was used as the vehicle control. Cell viability was assessed 48 hours later by measuring the fluorescence of the reduction product of Resazurin by a Fusion microplate fluorometer (PerkinElmer) with λex=535 nm and λem=590 nm filters. The IC50 values (the drug concentration at which 50% of the maximal observed cytotoxicity is established) were calculated in XLFit 3.0 or XLFit 4.0 (ID Business Solutions Ltd) using a sigmoidal dose response model.
# HT-29 (Colon) = experiment: 48 hr cytotoxicity, HT-29; assay type: cell-based, human
# Protocol: as §1, §2
# [3] = system: Bcl-2-overexpressing MM.1S cells; experiment: viability of Bcl-2-overexpressing MM.1S cells; assay type: cell-based; conditions: 48 hours; 0, 12, 25 and 50 uM
# Protocol: Two cell-based assays were treated with NPI-1387 for 48 hours at concentrations of 0, 12, 25 and 50 uM. Both Bcl-2-overexpressing MM.1S cells and bortezomib-resistant DHL-4 lymphoma cells were used and the percentage of viable cells of each was recorded. […] (See FIG. 67).
# Panc1 and HS766T = experiment: TRAIL resistance of human pancreatic cancer cell lines; assay type: cell-based
# Source text: Novel diterpene inhibitors of NFκB derived from acanthoic acid (NPI-1342 (Formula IIB-a1) and NPI-1387; compound 24 under scheme 4 above) show measurable effects in human pancreatic cancer cell lines in vitro. Seven of the nine cell lines were moderately sensitive to apoptosis induced by death receptor ligand Tumor Necrosis Factor (TNF) related apoptosis-inducing ligand (TRAIL). […] Specific silencing of NFkB/p65 expression mimicked these effects. Furthermore, combination treatment of Salinosporamide A and either NPI-1342 or NPI-1387 led to induction of apoptosis as measured by PI FACS analysis. Specifically, levels of DNA fragmentation increased from 4% to 50% in HS766T cells and from 4% to 52% in Panc1 cells. The inhibitory effects of NPI-1342, NPI-1387 on NFκB were evaluated by Electromobility Shift Assays and confirmed by confocal microscopy.
# IL-8 production = experiment: LPS-stimulated IL-8 levels in RPMI 8226 cells (ELISA); assay type: cell-based, human; conditions: 20 μM to 0.16 μM
# Protocol: Ninety μl of 2.8×10^5/ml and 0.5 ml of 5×10^5/ml RMPI 8226 cells (#CCL-155C, American Type Culture Collection) were seeded in 96-well and 6-well plate in LGM-3 medium, respectively. Cells were cultured overnight at 37° C., 5% CO2 and 95% humidified air. 8-point serial dilution of TTL3 or formula (IIB-A1) was added to cells for 1 hr at the final concentration ranging from 20 μM to 0.16 μM. DMSO was used as control. After 1 hr, 50 ng/ml of LPS diluted in LGM-3 medium from 1 mg/ml stock solution was added to stimulate the cells for additional 10 hr. Supernatants were collected and IL-8 and IL-10 levels were analyzed by using the human IL-8 and IL-10 cytoset ELISA kits.
# IκBα phosphorylation = experiment: phosphorylation of IκBα induced by Toll-like receptor ligands in RPMI 8226 cells; assay type: cell-based; conditions: 13 μM
# Protocol: One ml/well of 2×10^6/ml RPMI 8226 cells (#CCL-155C, American Type Culture Collection) were seeded in 6-well plate in LGM-3 medium and cultured for overnight at 37° C., 5% CO2 and 95% humidified air. Formula (IIB-A1) was added to RPMI 8226 cells at the final concentration of 13 μM for 1 hr. DMSO was used as a control. Cells were then stimulated with 50 ng/ml LPS, 2 μg/ml Lipoteichoic acid (LTA) and CpG DNA for various length of time. At the end of each period of stimulation, cells were harvested by centrifugation and cell pellets were washed once in ice-cold 1× Dulbecco's Phosphate buffered Saline (DPBS). To prepare samples for SDS-PAGE, cells were lysed in RIPA buffer (50 mM Tris-HCl, pH7.4, 0.9% NaCl, 1% Triton X-100, 0.25% Na-deoxycholate, 1 mM EDTA, 2 mM Na3VO4 and 1× protease inhibitors cocktail) for 15 min on ice. Cell lysates were cleared by centrifugation at 14,000 rpm, 4° C. for 10 min. Protein concentrations of cell lysates were determined by BCA protein assay kit prior to SDS-PAGE. Equal amount of proteins from various cell lysates were resolved on 10% NuPage MES precast gels and transferred to nitrocellulose membranes according to the manufacturer's instructions. […]
SMILES,IC50 [1],IC50 [2],IC50 (HT-29 (Colon)),"IC50 (HT-29 (Colon); Homo sapiens, HT-29, 48 h)",percentage of viable cells [3],TRAIL resistance (Panc1 and HS766T),LPS-induced IL-8 production (IL-8 production),LPS-induced IL-8 production (IL-8 production; listed as formula (IIB-A1)),"phosphorylation of IκBα induced by Toll-like receptor ligands (LTA, CpG DNA) (IκBα phosphorylation)","phosphorylation of IκBα induced by Toll-like receptor ligands (LTA, CpG DNA) (IκBα phosphorylation; listed as formula (IIB-A1))"
"C=CC(=O)C1(C)CCCC2(C)C3=CCC(C)(C=C)C[C@@H]3CC[C@H]12 (stereo in doubt) [NPI-1387, 1-[(1S,4aS,7R)-1,4a,7-Trimethyl-7-vinyl-1,2,3,4,4a,6,7,8,8a,9,10,10a-dodecahydro-1-phenanthrenyl]-2-propen-1-one]",25 to 40 µM,≥ 20 µM,13 ± 6 µM,14 ± 6 µM,marked decrease in the percentage of viable cells,reversed TRAIL resistance,–,–,–,–
"C=C[C@@]1(C)CCC=C2[C@H]1CC[C@@H]1[C@](C)(C(=O)NC3CCCCC3)CCC[C@@]21C [Formula (IIB-A1), N-Cyclohexylamide Derivative of TTL]",–,–,–,–,–,–,reduces LPS-induced IL-8 and IL-10 production in a dose-dependent manner,inhibits the LPS-induced IL-8 and IL-10 production,inhibits the phosphorylation of IκBα induced by Toll-like receptor ligands,inhibits the phosphorylation of IκBα induced by LTA and CpG DNA
